# Patent US7709498B2, “Quinoline derivatives as antibacterial agents” (Janssen Pharmaceutica N.V., priority 2005, dated 2010)
# Columns and labels:
# Assay type in all cases: cell-based
# [1] = system: Listeria monocytogenes (ATCC49594); experiment: Microtitre plate assay, IC90 determination, LMO 49594; settings: Listeria monocytogenes, ATCC49594, 24 h, 90% inhibitory concentration for bacterial growth, 37° C., resazurin fluorescence, read-out: IC90 (μg/ml) LMO 49594
# Procedure: (§1) The bacteria used in this study were grown overnight in flasks containing 100 ml Mueller-Hinton Broth (Becton Dickinson—cat. no. 275730) in sterile de-ionized water, with shaking, at 37° C. Stocks (0.5 ml/tube) were stored at −70° C. until use. Bacteria titrations were performed in microtiter plates to detect the TCID50, in which the TCID50 represents the dilution that gives rise to bacterial growth in 50% of inoculated cultures.
# (§2) In general, an inoculum level of approximately 100 TCID50 was used for susceptibility testing.
# (§3) Flat-bottom, sterile 96-well plastic microtiter plates were filled with 180 μl of sterile deionized water, supplemented with 0.25% BSA. Subsequently, stock solutions (7.8× final test concentration) of compounds were added in 45 μl volumes in column 2. Serial five-fold dilutions (45 μl in 180 μl) were made directly in the microtiter plates from column 2 to reach column 11. Untreated control samples with (column 1) and without (column 12) inoculum were included in each microtiter plate. Depending on the bacteria type, approximately 10 to 60 CFU per well of bacteria inoculum (100 TCID50), in a volume of 100 μl in 2.8× Mueller-Hinton broth medium, was added to the rows A to H, except column 12. The same volume of broth medium without inoculum was added to column 12 in row A to H. The cultures were incubated at 37° C. for 24 hours under a normal atmosphere (incubator with open air valve and continuous ventilation). At the end of incubation, one day after inoculation, the bacterial growth was quantitated fluorometrically. Therefore resazurin (0.6 mg/ml) was added in a volume of 20 μl to all wells 3 hours after inoculation, and the plates were re-incubated overnight. A change in colour from blue to pink indicated the growth of bacteria. The fluorescence was read in a computer-controlled fluorometer (Cytofluor Biosearch) at an excitation wavelength of 530 nm and an emission wavelength of 590 nm. The % growth inhibition achieved by the compounds was calculated according to standard methods. The IC90 (expressed in μg/ml) was defined as the 90% inhibitory concentration for bacterial growth.
# (§4) BSU 3639 means Bacillus subtilis (ATCC43639); ECO 25922 means Escherichia coli (ATCC25922); EFA 14506 means Enterococcus faecalis (ATCC14506); EFA 29212 means Enterococcus faecalis (ATCC29212); LMO 49594 means Listeria monocytogenes (ATCC49594); PAE 27853 means Pseudomonas aeruginosa (ATCC27853); SMU 33402 means Streptococcus mutans (ATCC33402); SPN 6305 means Streptococcus pneumoniae (ATCC6305); SPY 8668 means Streptococcus pyogens (ATCC8668); STA 43300 means Staphylococcus aureus (ATCC43300); STA 25923 means Staphylococcus aureus (ATCC25923); STA 29213 means Staphylococcus aureus (ATCC29213); STA RMETH means methicilline resistant Staphylococcus aureus (MRSA) (a clinical isolate from the University of Antwerp). ATCC means American type tissue culture.
# [2] = system: Streptococcus pneumoniae (ATCC6305); experiment: Microtitre plate assay, IC90 determination, SPN 6305; settings: 90% inhibitory concentration for bacterial growth, 37° C., resazurin fluorescence; for IC90 (μg/ml) SPN 6305: 24 hours; for IC90: Streptococcus pneumoniae, ATCC6305, 24 h, read-out: IC90 (μg/ml) SPN 6305
# Procedure: as §1, §2, §3, §4
# [3] = system: Streptococcus mutans (ATCC33402); experiment: Microtitre plate assay, IC90 determination, SMU 33402; settings: Streptococcus mutans, ATCC33402, 24 h, 90% inhibitory concentration for bacterial growth, 37° C., resazurin fluorescence, read-out: IC90 (μg/ml) SMU 33402
# Procedure: as §1, §2, §3, §4
# [4] = system: Streptococcus pyogens (ATCC8668); experiment: Microtitre plate assay, IC90 determination, SPY 8668; settings: Streptococcus, ATCC8668, 24 h, 90% inhibitory concentration for bacterial growth, 37° C., resazurin fluorescence, read-out: IC90 (μg/ml) SPY 8668
# Procedure: as §1, §2, §3, §4
Structure (SMILES),IC90 [1] [µg/mL],IC90 [2] [µg/mL],IC90 [3] [µg/mL],also measured
COc1nc2ccccc2cc1C(c1ccccc1)C(O)(CCN(C)C)c1ccccc1 (stereo not drawn) [Compound 41],17,,,
COc1nc2ccc(Br)cc2cc1C(c1ccccc1)C(O)(CCN1CCCCC1)c1ccccc1 (stereo not drawn) [Compound 47],,,,IC90 (μg/ml) SPN 6305 [2]: 6.9 µg/mL
COc1nc2ccc(Br)cc2cc1C(c1ccccc1)C(O)(CCN(C)C)c1cc(F)ccc1F (stereo not drawn) [Compound 67],10.8,13.6,,
COc1nc2ccc(Br)cc2cc1C(c1ccc(C)cc1)C(O)(CCN(C)C)c1cccc2ccccc12 (stereo not drawn) [Compound 72],,14.3,9,IC90 [4]: 11.4 µg/mL
COc1nc2ccc(Br)cc2cc1C(c1ccc(Cl)cc1)C(O)(CCN(C)C)c1cccc2ccccc12 (stereo not drawn) [Compound 73],,,11.8,IC90 [4]: 14.8 µg/mL
COc1nc2ccc(Br)cc2cc1C(c1ccccc1)C(O)(CCN(C)C)c1ccc2c(c1)OCCO2 (stereo not drawn) [Compound 78],,,11.2,IC90 (μg/ml) SPN 6305 [2]: 11.2 µg/mL; IC90 [4]: 11.2 µg/mL
COc1nc2ccc(-c3ccccc3)cc2cc1C(c1ccccc1)C(O)(CCN(C)C)c1cccc2ccccc12 (stereo not drawn) [Compound 84],11,7,11,IC90 [4]: 11 µg/mL
COc1nc2ccc(Br)cc2cc1C(c1ccccc1)C(O)(CCN(C)C)c1cccc(F)c1 (stereo not drawn) [Compound 108],,,,IC90 (μg/ml) SPN 6305 [2]: 13.1 µg/mL
COc1nc2ccc(Br)cc2cc1C(c1ccccc1)C(O)(CCN(C)C)c1cccc(F)c1F (stereo not drawn) [Compound 113],10.8,13.6,,
COc1nc2ccc(Br)cc2cc1C(c1ccccc1)C(O)(CCN(C)C)c1cc(F)cc(F)c1 (stereo not drawn) [Compound 116],10.8,,,
COc1nc2ccc(-c3ccco3)cc2cc1C(c1ccccc1)C(O)(CCN(C)C)c1cccc(F)c1 (stereo not drawn) [Compound 174],10.2,,,
COc1nc2ccc(Br)cc2cc1C(c1ccc(F)cc1)C(O)(CCN(C)C)c1cccc2ccccc12 (stereo not drawn) [Compound 206],,12.8,,
CNCCC(O)(c1ccccc1)C(c1ccccc1)c1cc2cc(Br)ccc2nc1OC (stereo not drawn) [Compound D],,4.9,,
COc1nc2ccc(-c3ccco3)cc2cc1C(c1ccccc1)C(O)(CCN(C)C)c1cccc2ccccc12 (stereo not drawn) [Compound H],13.6,13.6,,
COc1nc2ccc(Br)cc2cc1C(c1ccccc1)C(O)(CCN(C)C)c1ccc2c3c(cccc13)CC2 (stereo not drawn) [Compound I],,11.6,,

# The next lines start with results.
IC90 [1] [µg/mL],IC90 [2] [µg/mL],IC90 [3] [µg/mL],Structure (SMILES),also measured
9.4,,,COc1nc2ccc(Br)cc2cc1C(c1ccccc1)C(O)(CCN1CCCCC1)c1ccc2ccccc2c1 (stereo not drawn) [Compound 128],
,15,11.9,COc1nc2ccc(Br)cc2cc1C(c1ccccc1)C(O)(CCN1CCCCC1)c1ccc2ccccc2c1 (stereo not drawn) [Compound 129],IC90 [4]: 11.9 µg/mL
,,10.1,COc1nc2ccc(Br)cc2cc1C(c1ccccc1)C(O)(CCN(C)C)c1ccc2c(Br)cccc2c1 (stereo not drawn) [Compound 130],
,14.7,,COc1ccc2cc(C(O)(CCN(C)C)C(c3ccccc3)c3cc4cc(Br)ccc4nc3OC)ccc2c1 (stereo not drawn) [Compound 163],
,16.9,,COc1nc2ccc(Br)cc2cc1C(c1ccccc1)C(O)(CCN1CCCCC1)c1ccc2cc(Br)ccc2c1 (stereo not drawn) [Compound 166],
,26,,COc1nc2ccc(Br)cc2cc1C(c1ccccc1)C(O)(CCN1CCCC1)c1ccc2ccccc2c1 (stereo not drawn) [Compound 170],
,,10.8,COc1nc2ccc(Br)cc2cc1C(c1ccccc1)C(O)(CCN(C)C)c1ccc(F)c(F)c1 (stereo not drawn) [Compound 196],
,15.1,,COc1nc2ccc(Br)cc2cc1C(c1ccccc1)C(O)(CCN1CCN(c2ncccn2)CC1)c1ccc2ccccc2c1 (stereo not drawn) [Compound 209],
